Patent publication US20260265798A1, “Enzymes and Uses in Biocatalytic Halogenation of N-Heteroaryls Thereof” (Agency for Science, Technology and Research, priority 2022, published 2026)
Marks after values point to notes of the source that are not given here.

Columns and labels:
PrnC = biological target: T1, PrnC (Pseudomonas fluorescens, UniProt P95482); assay: Optimization study of PrnC biocatalyst enzymatic assay conditions on the native substrate 1; type: biochemical
T1 construct: made in house; host or cells: T7 Express E. coli (NEB), pET-28a(+)
T1 sequence (P95482 with tags, fused parts or gaps): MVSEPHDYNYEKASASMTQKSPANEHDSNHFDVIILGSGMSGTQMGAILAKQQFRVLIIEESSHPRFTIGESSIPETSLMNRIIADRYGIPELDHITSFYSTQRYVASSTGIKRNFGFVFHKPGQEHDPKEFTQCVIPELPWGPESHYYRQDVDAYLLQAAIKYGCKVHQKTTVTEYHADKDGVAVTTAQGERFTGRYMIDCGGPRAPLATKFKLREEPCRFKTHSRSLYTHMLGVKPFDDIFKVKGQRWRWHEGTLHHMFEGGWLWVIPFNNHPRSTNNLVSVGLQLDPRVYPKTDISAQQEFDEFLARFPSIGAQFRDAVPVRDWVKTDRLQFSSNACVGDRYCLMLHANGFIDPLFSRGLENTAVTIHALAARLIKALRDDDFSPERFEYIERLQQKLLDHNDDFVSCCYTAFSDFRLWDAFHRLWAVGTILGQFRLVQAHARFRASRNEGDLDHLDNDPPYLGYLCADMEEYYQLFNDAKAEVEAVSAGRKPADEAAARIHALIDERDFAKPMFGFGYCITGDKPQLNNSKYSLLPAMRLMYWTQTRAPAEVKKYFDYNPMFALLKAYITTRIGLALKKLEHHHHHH
Procedure: The conditions in the table above would be referred to as the standard conditions of the present invention; i.e. flavin-dependent halogenase (4 mol %), flavin adenine dinucleotide (FAD) (0.2 mol %), E. coli flavin reductase (Fre) (0.5 mol %), nicotinamide adenine dinucleotide hydrogen (NADH) (5.0 equiv), glucose 1-dehydrogenase (GdHi) (0.5 mol %), monosaccharide (10.0 equiv), halogen (20.0 equiv), buffer (10 mM, pH 7.4).
With the purified biocatalyst PrnC enzyme in hand, a preliminary optimization study of the enzymatic assay conditions was performed on the native substrate monodechloroaminopyrrolnitrin (1). The enzyme assays were carried out for 18 h with orbital shaking at 300 rpm and a temperature of 30° C. In addition to the substrate and PrnC, the reaction mixture contained FAD (0.1 equivalents relative to PrnC), NADH and E. coli flavin reductase (Fre), needed to generate FADH2 for the halogenation reaction. In initial assays, even using a super stoichiometric amount of NADH (5.0 equiv) (entry 1) only yielded 18% conversion to the desired product.

NT-11 PrnC = biological target: T2, NT-11 PrnC (Pseudomonas fluorescens, UniProt P95482); assay: NT-11 PrnC-catalyzed halogenation, analytical scale biotransformation (in-vitro regioselective chlorination, substrate scope); type: biochemical; details: in-vitro chlorination by PrnC under optimized conditions; substrate 0.5 mM, MgCl2 10 mM, overnight 30° C.; HPLC
T2 construct: made in house; host or cells: T7 Express E. coli (NEB), pET-28a(+)
T2 sequence (P95482 with tags, fused parts or gaps): T1 sequence (P95482 with tags, fused parts or gaps)
Procedure: NT-11 PrnC-Catalyzed halogenation. In a solution containing the pyrrolic derivative starting material (0.5 mM), MgCl2/MgBr2 (10 mM), glucose (5.0 mM), FAD ([…]), NT-11 PrnC (12.5 μM), Fre ([…]) and Gdhi (2.5 μM) in 10 mM potassium phosphate buffer, NADH (2.5 mM) was added to a total volume of 200 μL. After an overnight incubation of 30° C. and orbital shaking at 350 rpm, reactions were quenched with an equivalent volume of MeOH, pelleted by centrifugation (15000 rpm for 10 min) and the supernatant analyzed by HPLC-MS using the analytical HPLC method.
Analytical HPLC Method. 10 μL of the supernatant injected onto SecurityGuard™ column (KJ0-4282) with a (4.0 mm×3.0 mm) guard cartridge before separation using a Phenomenex Gemini® C18 analytical column (5 μm packing, 150 mm×4.6 mm). Gradient starting conditions of 5% MeCN/H2O (+0.1% Formic acid) were held for 1 min before development into 50% MeCN/H2O over 3 min, followed by development into 95% MeCN/H2O over 3 min. 95% MeCN/H2O was held for 1 min before equilibration back to starting conditions over 1 min. Starting conditions was held for 1 min followed by another 2 min post-run. Flow rates were kept constant at 1 mL/min. Column temperature was kept constant at 30° C. UV absorbance was detected at 220 nm, 254 nm and 210 nm throughout the run.
A substrate scope of the enzyme by the application of the Prnc enzyme on a list of structural diverse pyrrolic substrates is determined. An optimized co-factors regeneration protocol was used to regulate the generation of the activated halogen which is captured by the Prnc enzyme into the active site for the bioconversion. Reaction is conducted at ambient temperature of 30° C., in an aqueous non-toxic buffer solution with an environmentally friendly chloride source.

SMILES | conversion yield (NT-11 PrnC) [%] | also measured
Nc1c(Cl)cccc1-c1c[nH]cc1Cl [compound 2, 2-chloro-6-(4-chloro-1H-pyrrol-3-yl)aniline] | 55 | conversion of 2 (%) (PrnC; entry 1: 2 mol% FAD (10x), no GdHi & glucose, 18 h, 30° C.): 18%; conversion of 2 (%) (PrnC; entry 2: 2 mol% FAD (10x), GdHi regen): 16%; conversion of 2 (%) (PrnC; entry 4: 1 mol% of Fre (2x)): 72%; conversion of 2 (%) (PrnC; entry 5: 0.05 Equiv NADH (Less 100x)): 32%; conversion of 2 (%) (PrnC; entry 6: 0.05 Equiv NADH (Less 100x) + 8 mol% PrnC (2x)): 53%; conversion of 2 (%) (PrnC; entry 7: 0.05 Equiv NADH (Less 100x) in Tris HCl buffer): 49%; conversion of 2 (%) (PrnC; standard conditions: PrnC 4 mol%, GdHi 0.5 mol%, FAD 0.2 mol%, Fre 0.5 mol%, NADH 5.0 equiv, glucose 10.0 equiv, MgCl2 20.0 equiv, phosphate buffer 10 mM pH 7.4): 91^b %
CC(=O)Nc1ccccc1-c1c[nH]cc1Cl [compound 3, N-(2-(4-chloro-1H-pyrrol-3-yl)phenyl)acetamide] | 18 | 
Cc1ccccc1-c1c[nH]cc1Cl [compound 5, 3-chloro-4-(o-tolyl)-1H-pyrrole] | 22 | 
COc1ccccc1-c1c[nH]cc1Cl [compound 6, 3-chloro-4-(2-methoxyphenyl)-1H-pyrrole] | 41 | 
Oc1ccccc1-c1c[nH]cc1Cl [compound 7, 2-(4-chloro-1H-pyrrol-3-yl)phenol] | 21 | 
Clc1c[nH]cc1-c1ccccc1 [compound 8, 3-chloro-4-phenyl-1H-pyrrole] | 77 | 
Clc1c[nH]cc1-c1cccnc1 [compound 9, 3-(4-chloro-1H-pyrrol-3-yl)pyridine] | 73 | 
Nc1ccccc1-c1cc(Cl)c[nH]1 [compound 11, 2-(4-chloro-1H-pyrrol-2-yl)aniline] | 68 | 
Nc1c(Cl)cccc1-c1[nH]ncc1Cl [compound 12, 2-chloro-6-(4-chloro-1H-pyrazol-5-yl)aniline] | 14 | 
Clc1c[nH]cc1-c1cnc2ccccc2c1 [compound 14, 3-(4-chloro-1H-pyrrol-3-yl) quinoline] | 63 | 
